Experiments:
NSP9 = NSP9 (Severe acute respiratory syndrome coronavirus 2, UniProt P0DTC1); format: binding, SARS‐CoV‐2
NSP3 UBl1 = NSP3 UBl1 (Severe acute respiratory syndrome coronavirus 2, UniProt P0DTC1); format: binding, SARS‐CoV‐2
NSP3 SUD-M = NSP3 SUD-M (Severe acute respiratory syndrome coronavirus 2, UniProt P0DTC1); test: biochemical; format: binding, SARS‐CoV‐2

SGLSIGTVFQSSSPGG
PSSM value, position F9 of SGLSIGTVFQSSSPGG (NSP9): 0
PSSM value, position I5 of SGLSIGTVFQSSSPGG (NSP9): 1
PSSM value, position L3 of SGLSIGTVFQSSSPGG (NSP9): 0
PSSM value, position P14 of SGLSIGTVFQSSSPGG (NSP9): 0
PSSM value, position Q10 of SGLSIGTVFQSSSPGG (NSP9): 0
PSSM value, position S1 of SGLSIGTVFQSSSPGG (NSP9): 0
PSSM value, position S4 of SGLSIGTVFQSSSPGG (NSP9): 0
PSSM value, position S11 of SGLSIGTVFQSSSPGG (NSP9): 0
PSSM value, position S12 of SGLSIGTVFQSSSPGG (NSP9): 0
PSSM value, position S13 of SGLSIGTVFQSSSPGG (NSP9): 0
PSSM value, position T7 of SGLSIGTVFQSSSPGG (NSP9): 0
PSSM value, position V8 of SGLSIGTVFQSSSPGG (NSP9): 0

PSDEGALLDQLYLALR
PSSM value, column E (NSP3 UBl1): 0.9239
PSSM value, column G (NSP3 UBl1): 0.163
PSSM value, column Q (NSP3 UBl1): 0.8454
PSSM value, column R (NSP3 UBl1): 0.000271
PSSM value, column S (NSP3 UBl1): 0.00806
PSSM value, column Y (NSP3 UBl1): 0.04994

GHSPADYLRFQDLVLR
DMS PSSM value, P (position 4) (NSP16): 0.03004
DMS PSSM value, column A (position 5) (NSP16): 0.5801
DMS PSSM value, column D (position 6) (NSP16): 0.9437
DMS PSSM value, column D (position 12) (NSP16): 0.8934
DMS PSSM value, column F (position 10) (NSP16): 1
DMS PSSM value, column G (position 1) (NSP16): 0.4974
DMS PSSM value, column H (position 2) (NSP16): 0.3305
DMS PSSM value, column L (position 8) (NSP16): 0.965
DMS PSSM value, column L (position 13) (NSP16): 0.8766
DMS PSSM value, column L (position 15) (NSP16): 0.9948
DMS PSSM value, column Q (position 11) (NSP16): 1
DMS PSSM value, column R (position 9) (NSP16): 0.07816
DMS PSSM value, column S (position 3) (NSP16): 0.3438
DMS PSSM value, column V (position 14) (NSP16): 0.9023
DMS PSSM value, column Y (position 7) (NSP16): 1

DEGALLDQLYLALRNF
PSSM value, column E (NSP3 UBl1): 1
PSSM value, column G (NSP3 UBl1): 0.00255
PSSM value, column N (NSP3 UBl1): 0.0003155
PSSM value, column Q (NSP3 UBl1): 0.001034
PSSM value, column R (NSP3 UBl1): 0.0009557
PSSM value, column Y (NSP3 UBl1): 0.8625

Ac-QFTEEALHFVLYGVTPY-NH2 [PRDM14 D201A]
effect of mutation on affinity, in words (NSP3 SUD-M): reduced affinity

Ac-QFTEENLHFVLYGVTPY-NH2 [PRDM14 D201N]
effect of mutation on affinity, in words (NSP3 SUD-M): reduced affinity

NSSGLSIGTVFQSSSP
PSSM value, position F11 of NSSGLSIGTVFQSSSP (NSP9): 0.004607
PSSM value, position I7 of NSSGLSIGTVFQSSSP (NSP9): 0.3584
PSSM value, position L5 of NSSGLSIGTVFQSSSP (NSP9): 0.5284
PSSM value, position P16 of NSSGLSIGTVFQSSSP (NSP9): 0.0472
PSSM value, position Q12 of NSSGLSIGTVFQSSSP (NSP9): 0.008402
PSSM value, position S2 of NSSGLSIGTVFQSSSP (NSP9): 0.1505
PSSM value, position S3 of NSSGLSIGTVFQSSSP (NSP9): 0.01233
PSSM value, position S6 of NSSGLSIGTVFQSSSP (NSP9): 0.08225
PSSM value, position S13 of NSSGLSIGTVFQSSSP (NSP9): 0.05519
PSSM value, position S14 of NSSGLSIGTVFQSSSP (NSP9): 0.02572
PSSM value, position S15 of NSSGLSIGTVFQSSSP (NSP9): 0.009443
PSSM value, position T9 of NSSGLSIGTVFQSSSP (NSP9): 0.0231
PSSM value, position V10 of NSSGLSIGTVFQSSSP (NSP9): 0.01201

EPGHSPADYLRFQDLV
DMS PSSM value, P (position 2) (NSP16): 0
DMS PSSM value, column A (position 7) (NSP16): 0
DMS PSSM value, column D (position 8) (NSP16): 1
DMS PSSM value, column D (position 14) (NSP16): 1
DMS PSSM value, column F (position 12) (NSP16): 1
DMS PSSM value, column G (position 3) (NSP16): 0
DMS PSSM value, column H (position 4) (NSP16): 1
DMS PSSM value, column L (position 10) (NSP16): 0
DMS PSSM value, column L (position 15) (NSP16): 0
DMS PSSM value, column P (position 6) (NSP16): 0
DMS PSSM value, column Q (position 13) (NSP16): 1
DMS PSSM value, column R (position 11) (NSP16): 1
DMS PSSM value, column S (position 5) (NSP16): 0
DMS PSSM value, column V (position 16) (NSP16): 1
DMS PSSM value, column Y (position 9) (NSP16): 0

— paper PMC12102759 (Protein Science : A Publication of the Protein Society, 2025)
